47 molecules from the C3SDB collision cross section collection can be followed below.

“And” between values parts separate entries of the source, which are not always exact repeats. Identical values can stand only once.

The conditions of data set [1]: instrument: DT, single field, calibrated with ESI Low Concentration Tuning Mix (Agilent).
The conditions of data set [2]: [M+H]+; instrument: TW; calibrated with polyalanine and drug standards.

Regarding `CN1CC(=O)N=C1N` [CREATININE], the “collision cross section (N2)” value in data set [1] ([M+H]+) was 123.2 Å²; in data set [1] ([M+Na]+), 132.8 Å²; in data set [1] ([M-H]-), 118.5 Å²; in data set [2], 120.2 Å².

In the case of `N[C@H]1C(O)O[C@H](CO)[C@@H](O)[C@@H]1O` (stereo partly specified) [GLUCOSAMINE], the “collision cross section (N2)” value in data set [1] ([M+H]+) is 138.1 Å² and 141.4 Å²; in data set [1] ([M+Na]+) it was 143.5 Å² and 146.5 Å²; in data set [2] it was 145.2 Å².

As for `Nc1ccccc1C(=O)CC(N)C(=O)O` (stereo unspecified) [KYNURENINE], the “collision cross section (N2)” value was 149.3 Å² and 149.6 Å² in data set [1] ([M+H]+); 152.8 Å² and 153.1 Å² in data set [1] ([M+Na]+); 146 Å² in data set [2].

With `CC(=O)OC[C@H](N)C(=O)O` [O-ACETYLSERINE], the “collision cross section (N2)” value in data set [1] ([M+H]+) worked out at 130.5 Å².

For `NCCOP(=O)(O)O` [O-PHOSPHOETHANOLAMINE], in data set [1] ([M-H]-), the “collision cross section (N2)” value is reported as 123.2 Å².

For the molecule `N[C@@H](COP(=O)(O)O)C(=O)O` [O-PHOSPHOSERINE], the “collision cross section (N2)” value in data set [1] ([M+Na]+) amounted to 140.8 Å².

Take `N[C@@H](CCOC(=O)CCC(=O)O)C(=O)O` [O-SUCCINYL-HOMOSERINE]: the “collision cross section (N2)” value is 145.9 Å² in data set [1] ([M+H]+), 145.8 Å² in data set [1] ([M+Na-2H]-) and 145.7 Å² in data set [1] ([M+Na]+).

For `O=C(O)CCC(=O)C(=O)O` [OXOGLUTARATE], the “collision cross section (N2)” value in data set [1] ([M-H]-) is recorded as 120.9 Å².

With `NC[C@H](O)c1ccc(O)cc1` [P-OCTOPAMINE], in data set [1] ([M+Na]+), the “collision cross section (N2)” value was found to be 147.3 Å².

On to `CCCCCCCCCCCCCCCC(=O)O` [PALMITATE], for which the “collision cross section (N2)” value in data set [1] ([M+Na]+) is 173.2 Å².

Consider `CC(C)(CO)[C@@H](O)C(=O)NCCC(=O)O` [PANTOTHENATE], for which the “collision cross section (N2)” value in data set [1] ([M+H]+) is reported as 129.9 Å².

For `CCCCCCCCCCC/C=C\CCCCC(=O)[O-]` [PETROSELINATE], the “collision cross section (N2)” value in data set [1] ([M-H]-) was found to be 175.6 Å².

`N[C@@H](COP(=O)(O)O)C(=O)O` [PHOSPHOSERINE]: the “collision cross section (N2)” value in data set [1] ([M+Na-2H]-) worked out at 135.1 Å²; in data set [1] ([M-H]-), 127.5 Å².

Turning to `O=P(O)(O)OC1C(OP(=O)(O)O)C(OP(=O)(O)O)C(OP(=O)(O)O)C(OP(=O)(O)O)C1OP(=O)(O)O` (stereo unspecified) [PHYTATE], the “collision cross section (N2)” value is reported as 215.8 Å² in data set [1] ([M+H]+), 201.3 Å² in data set [1] ([M+Na-2H]-) and 195.4 Å² in data set [1] ([M-H]-).

Consider `O=C(O)C1CCCCN1` (stereo unspecified) [PIPECOLATE], for which the “collision cross section (N2)” value in data set [1] ([M+H]+) was 127.7 Å² and 128 Å²; in data set [1] ([M+Na]+) it was 138.8 Å² and 139.4 Å²; in data set [1] ([M-H]-), 128.3 Å² and 128.9 Å².

With `c1ncc2[nH]cnc2n1` [PURINE], the “collision cross section (N2)” value was 121.9 Å² in data set [1] ([M+H]+) and 114.3 Å² in data set [1] ([M-H]-).

For the molecule `Cc1ncc(CO)c(C=O)c1O` [PYRIDOXAL], the entries for the “collision cross section (N2)” value in data set [1] ([M+H]+), in data set [1] ([M+Na]+) and in data set [1] ([M-H]-) were 131.4 Å², 142.8 Å² and 129 Å², respectively.

Regarding `Cc1ncc(CO)c(CO)c1O` [PYRIDOXINE], the results for the “collision cross section (N2)” value in data set [1] ([M+H]+), in data set [1] ([M-H]-) and in data set [2] were 134.4 Å², 132.4 Å² and 132.3 Å², respectively.

With `O=C(O)c1ccc[nH]1` [PYRROLE-2-CARBOXYLATE], the “collision cross section (N2)” value in data set [1] ([M-H]-) turned out to be 113.8 Å².

For the molecule `O=C(O)c1cccnc1C(=O)O` [QUINOLINATE], the “collision cross section (N2)” value in data set [1] ([M+H]+) is on record as 132.3 Å²; in data set [1] ([M-H]-), 126.6 Å².

As for `OC[C@H]1O[C@H](OC[C@H]2O[C@H](O[C@]3(CO)O[C@H](CO)[C@@H](O)[C@@H]3O)[C@H](O)[C@@H](O)[C@@H]2O)[C@H](O)[C@@H](O)[C@H]1O` [RAFFINOSE], the “collision cross section (N2)” value worked out at 208.9 Å² in data set [1] ([M+Na]+) and 197.3 Å² in data set [1] ([M-H]-).

For `C[C@@H]1OC(O)[C@H](O)[C@H](O)[C@H]1O` (stereo partly specified) [RHAMNOSE], in data set [1] ([M+Na]+), the “collision cross section (N2)” value was found to be 142.6 Å².

For `Cc1cc2nc3c(=O)[nH]c(=O)nc-3n(C[C@H](O)[C@H](O)[C@H](O)CO)c2cc1C` [RIBOFLAVIN], the “collision cross section (N2)” value is given as 188.5 Å² in data set [1] ([M+H]+), 186.1 Å² in data set [1] ([M-H]-) and 184.9 Å² in data set [2].

On to `OC1OC[C@@H](O)[C@@H](O)[C@H]1O` (stereo partly specified) [RIBOSE], for which the “collision cross section (N2)” value in data set [1] ([M+Na]+) is given as 135.2 Å².

Consider `O=C(/C=C/c1ccc(O)c(O)c1)O[C@@H](Cc1ccc(O)c(O)c1)C(=O)O` [ROSMARINATE], for which the “collision cross section (N2)” value in data set [1] ([M-H]-) is listed as 172.7 Å².

Take `NC(=O)c1ccccc1O` [SALICYLAMIDE]: the “collision cross section (N2)” value in data set [1] ([M+H]+) came out at 124.4 Å²; in data set [1] ([M-H]-) it was 121.1 Å²; in data set [2], 122.2 Å².

Regarding `C[C@@H]1NCCc2cc(O)c(O)cc21` [SALSOLINOL], the entries for the “collision cross section (N2)” value in data set [1] ([M+H]+) and in data set [1] ([M-H]-) were 142.7 Å² and 139.4 Å², respectively.

As for `NCC[Se][Se]CCN` [SELENOCYSTAMINE], the “collision cross section (N2)” value is on record as 135.6 Å² in data set [1] ([M+H]+) and 138.6 Å² in data set [1] ([M+Na]+).

For `OC[C@@H](O)[C@@H](O)[C@H](O)[C@@H](O)CO` [SORBITOL], the figures for the “collision cross section (N2)” value in data set [1] ([M+Na]+) and in data set [1] ([M-H]-) were 142.9 Å² and 131.4 Å², respectively.

In the case of `OCC1(O)OC[C@H](O)[C@@H](O)[C@@H]1O` (stereo partly specified) [SORBOSE], the “collision cross section (N2)” value in data set [1] ([M+Na]+) was 139.4 Å² and 143.3 Å².

Regarding `NCCCCNCCCN` [SPERMIDINE], the “collision cross section (N2)” value in data set [1] ([M+H]+) was 131.4 Å² and 131.6 Å²; in data set [1] ([M+Na]+), 136.1 Å² and 136.5 Å².

For the molecule `OC[C@H]1O[C@H](OC[C@H]2O[C@H](OC[C@H]3O[C@H](O[C@]4(CO)O[C@H](CO)[C@@H](O)[C@@H]4O)[C@H](O)[C@@H](O)[C@@H]3O)[C@H](O)[C@@H](O)[C@H]2O)[C@H](O)[C@@H](O)[C@H]1O` [STACHYOSE], the “collision cross section (N2)” value stood at 235.1 Å² in data set [1] ([M+Na]+) and 224.1 Å² in data set [1] ([M-H]-).

Regarding `NCCS(=O)(=O)O` [TAURINE], the “collision cross section (N2)” value is 128.2 Å² and 134.2 Å² in data set [1] ([M+H]+); 118.4 Å² in data set [1] ([M-H]-).

Regarding `CSc1ncnc2nc[nH]c12` [THIOPURINE S-METHYLETHER], the entries for the “collision cross section (N2)” value in data set [1] ([M+H]+), in data set [1] ([M+Na]+) and in data set [1] ([M-H]-) were 129.8 Å², 145.1 Å² and 127.7 Å², respectively.

Turning to `Cc1cn([C@H]2C[C@H](O)[C@@H](CO)O2)c(=O)[nH]c1=O` [THYMIDINE], the “collision cross section (N2)” value in data set [1] ([M+Na]+) was determined as 161.6 Å²; in data set [1] ([M-H]-), 154.1 Å².

In the case of `Cc1c[nH]c(=O)[nH]c1=O` [THYMINE], the “collision cross section (N2)” value in data set [1] ([M+H]+) is given as 122.1 Å²; in data set [1] ([M-H]-), 119 Å².

As for `NC(=O)[C@@H]1CCCN1C(=O)[C@H](Cc1cnc[nH]1)NC(=O)[C@@H]1CCC(=O)N1` [THYROTROPIN RELEASING HORMONE], the “collision cross section (N2)” value in data set [1] ([M+H]+) was found to be 179.2 Å²; in data set [1] ([M+Na-2H]-), 183.2 Å²; in data set [1] ([M+Na]+), 182.4 Å²; in data set [1] ([M-H]-) it was 184.5 Å².

`OC[C@H]1O[C@H](O[C@H]2O[C@H](CO)[C@@H](O)[C@H](O)[C@H]2O)[C@H](O)[C@@H](O)[C@@H]1O` [TREHALOSE]: the “collision cross section (N2)” value in data set [1] ([M+K]+) worked out at 179.7 Å²; in data set [1] ([M+Na]+), 175.7 Å²; in data set [1] ([M-H]-) it was 169.9 Å².

For `CCCCCCCCCCCCCCCCCCCCCCC(=O)[O-]` [TRICOSANOATE], the “collision cross section (N2)” value was found to be 204.8 Å² in data set [1] ([M+Na]+) and 196.9 Å² in data set [1] ([M-H]-).

Turning to `N[C@@H](Cc1c[nH]c2ccccc12)C(=O)O` [TRYPTOPHAN], the “collision cross section (N2)” value was 150.1 Å² and 150.3 Å² in data set [1] ([M+H]+); 147.6 Å² and 147.7 Å² in data set [1] ([M+Na]+); 142.3 Å² and 142.5 Å² and 151.5 Å² in data set [1] ([M-H]-).

As to `NC(=O)NCCC(=O)O` [UREIDOPROPIONATE], the “collision cross section (N2)” value in data set [1] ([M+Na]+) is reported as 132.4 Å².

In the case of `CC(=O)NC1C(OP(=O)(O)OP(=O)(O)OCC2OC(n3ccc(=O)[nH]c3=O)C(O)C2O)OC(CO)C(O)C1O` (stereo unspecified) [URIDINE DIPHOSPHATE-N-ACETYLGALACTOSAMINE], the “collision cross section (N2)” value in data set [1] ([M+H]+) came out at 216.2 Å²; in data set [1] ([M+Na-2H]-), 228.2 Å²; in data set [1] ([M+Na]+) it was 218.1 Å²; in data set [1] ([M-H]-), 223.9 Å².

Take `CC(=O)N[C@H]1[C@H](OP(=O)(O)OP(=O)(O)OC[C@H]2O[C@@H](n3ccc(=O)[nH]c3=O)[C@H](O)[C@@H]2O)O[C@H](CO)[C@@H](O)[C@@H]1O` [URIDINE DIPHOSPHATE-N-ACETYLGLUCOSAMINE]: the “collision cross section (N2)” value in data set [1] ([M+H]+) came to 210.5 Å²; in data set [1] ([M+Na-2H]-), 227.9 Å²; in data set [1] ([M+Na]+), 218.1 Å²; in data set [1] ([M-H]-), 224 Å².

Consider `O=c1ccn([C@@H]2O[C@H](COP(=O)(O)O)[C@@H](O)[C@H]2O)c(=O)[nH]1` [URIDINE MONOPHOSPHATE], for which the “collision cross section (N2)” value was determined as 165.7 Å² in data set [1] ([M+H]+), 163.6 Å² in data set [1] ([M+Na-2H]-), 172.3 Å² in data set [1] ([M+Na]+) and 161.2 Å² in data set [1] ([M-H]-).

With `O=C(O)/C=C/c1cnc[nH]1` [UROCANATE], the entries for the “collision cross section (N2)” value in data set [1] ([M+H]+) and in data set [1] ([M-H]-) were 134.6 Å² and 120.9 Å², respectively.

In the case of `CC(C)[C@H](N)C(=O)O` [VALINE], the “collision cross section (N2)” value in data set [1] ([M+H]+) amounted to 120.9 Å²; in data set [1] ([M+Na]+), 133.4 Å²; in data set [1] ([M-H]-), 124.3 Å².

On to `O=c1[nH]c(=O)c2ncn([C@@H]3O[C@H](CO)[C@@H](O)[C@H]3O)c2[nH]1` [XANTHOSINE], for which the “collision cross section (N2)” value in data set [1] ([M+H]+) amounted to 162 Å²; in data set [1] ([M+K]+), 173 Å²; in data set [1] ([M+Na-2H]-) it was 161.9 Å²; in data set [1] ([M+Na]+), 173.3 Å²; in data set [1] ([M-H]-), 158.3 Å².
